This is an account of results in PubChem BioAssay (NCI).

Among the test systems are ACHN renal; HOP-62 NSCLC; MALME-3M melanoma; MCF7 breast; PC-3 prostate; SF-268 CNS; SF-295 CNS; SF-539 CNS; SK-MEL-2 melanoma; SK-MEL-5 melanoma.
Holding throughout (assay): inhibition of tumour cell growth, NCI panel, 48 h

The structures appear in SMILES notation.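 Briefly, cells in 96-well plates were exposed to five compound concentrations for 48 h, and endpoints were estimated by linear interpolation. Abbreviation: GI50, concentration required for 50% inhibition of growth. At the TGI there is no net growth.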

In the case of `CCn1c(-c2nonc2N)nc2ccc(F)cc21`, the GI50 in the experiment on ACHN renal, with HOP-62 NSCLC, with MALME-3M melanoma, in the experiment on MCF7 breast, in the experiment on PC-3 prostate and in the experiment on SF-268 CNS was more than 25 µM throughout. For the same molecule, the GI50 with SF-295 CNS, in the experiment on SF-539 CNS, with SK-MEL-2 melanoma and in the experiment on SK-MEL-5 melanoma was more than 25 µM each time. Moreover, the TGI with ACHN renal, in the experiment with HOP-62 NSCLC, in the experiment on MALME-3M melanoma, with MCF7 breast, with PC-3 prostate and in the experiment on SF-268 CNS was more than 25 µM in each case. In addition, the TGI in the experiment with SF-295 CNS, with SF-539 CNS, in the experiment on SK-MEL-2 melanoma and with SK-MEL-5 melanoma was more than 25 µM in each case.
Take `CC(C)(C)c1nc2c(o1)C(=Nc1ccc(F)cc1)c1ccccc1C2=O`: the TGI is 32.1 µM with ACHN renal; 32.4 µM in the experiment with HOP-62 NSCLC; 4.45 µM in the experiment with MALME-3M melanoma; 29.1 µM in the experiment on MCF7 breast; more than 100 µM in the experiment on PC-3 prostate; more than 62.9 µM with SF-268 CNS. Also, the TGI in the experiment with SF-295 CNS was 19.6 µM; in the experiment with SF-539 CNS it was 14.2 µM; in the experiment with SK-MEL-2 melanoma it was 8.03 µM; in the experiment on SK-MEL-5 melanoma, 3.45 µM.
Regarding `Cc1sc(C)c(-c2ccc(CO)o2)c1-c1ccc(CO)o1`, the GI50 with ACHN renal is 64.2 µM; with HOP-62 NSCLC, 0.372 µM; with MALME-3M melanoma, more than 100 µM; in the experiment on MCF7 breast it was 0.0787 µM; with PC-3 prostate, 32.7 µM; in the experiment with SF-268 CNS, 91.1 µM. Besides, the GI50 in the experiment with SF-295 CNS is 0.276 µM; with SF-539 CNS, more than 100 µM; in the experiment with SK-MEL-2 melanoma, 5.03 µM; in the experiment with SK-MEL-5 melanoma it was more than 61.5 µM. For the same molecule, the TGI in the experiment on ACHN renal, with HOP-62 NSCLC, in the experiment with MALME-3M melanoma, in the experiment with MCF7 breast, in the experiment on PC-3 prostate and in the experiment on SF-268 CNS was more than 100 µM in each case. Moreover, the TGI in the experiment with SF-295 CNS, in the experiment on SF-539 CNS, with SK-MEL-2 melanoma and with SK-MEL-5 melanoma was more than 100 µM each time.
For `CCCSc1cc(Cl)nc(N)n1`, the GI50 in the experiment with ACHN renal, in the experiment with HOP-62 NSCLC, in the experiment with MALME-3M melanoma, with MCF7 breast, with PC-3 prostate and in the experiment with SF-268 CNS was more than 100 µM each time. The GI50 in the experiment on SF-295 CNS, in the experiment on SF-539 CNS, in the experiment with SK-MEL-2 melanoma and with SK-MEL-5 melanoma was more than 100 µM throughout. Also, the TGI with ACHN renal, in the experiment with HOP-62 NSCLC, in the experiment with MALME-3M melanoma, in the experiment with MCF7 breast, with PC-3 prostate and in the experiment on SF-268 CNS was more than 100 µM in each case. In addition, the TGI with SF-295 CNS, in the experiment on SF-539 CNS, in the experiment on SK-MEL-2 melanoma and in the experiment with SK-MEL-5 melanoma was more than 100 µM each time.
For the molecule `COc1ccc2c(c1)[C@@]13CCN4CC5=CCO[C@H]6CC(=O)N2[C@H]1[C@H]6[C@H]5C[C@H]43`, the TGI with ACHN renal, in the experiment with HOP-62 NSCLC, in the experiment on MALME-3M melanoma, with MCF7 breast, with PC-3 prostate and in the experiment with SF-268 CNS was more than 100 µM in each case. In addition, the TGI in the experiment with SF-295 CNS, in the experiment with SF-539 CNS, in the experiment on SK-MEL-2 melanoma and in the experiment on SK-MEL-5 melanoma was more than 100 µM in each case.
For `O=P(O)(O)C(O)(Cn1ccnc1)P(=O)(O)O`, the GI50 was more than 46.2 µM with ACHN renal; more than 55 µM in the experiment on HOP-62 NSCLC; more than 54.1 µM in the experiment with MALME-3M melanoma; more than 86.4 µM with MCF7 breast; more than 59.8 µM in the experiment with PC-3 prostate; more than 100 µM in the experiment with SF-268 CNS. Moreover, the GI50 is more than 100 µM in the experiment with SF-295 CNS, 20.3 µM in the experiment with SF-539 CNS, more than 100 µM in the experiment with SK-MEL-2 melanoma and more than 43 µM in the experiment on SK-MEL-5 melanoma. Moreover, the TGI with ACHN renal was more than 84.8 µM; with HOP-62 NSCLC, more than 100 µM; in the experiment with MALME-3M melanoma, more than 100 µM; with MCF7 breast it was more than 100 µM; in the experiment with PC-3 prostate, more than 100 µM; with SF-268 CNS, more than 100 µM. Also, the TGI is more than 100 µM in the experiment on SF-295 CNS, more than 100 µM with SF-539 CNS, more than 100 µM in the experiment with SK-MEL-2 melanoma and more than 78 µM with SK-MEL-5 melanoma.
For the molecule `CS(=O)(=O)Nc1ccc(-c2ccc3c(NC(=O)C4CC4)n[nH]c3c2)cc1`, the GI50 is more than 25 µM with ACHN renal; more than 25 µM in the experiment with HOP-62 NSCLC; more than 23.1 µM with MALME-3M melanoma; more than 23.2 µM in the experiment with MCF7 breast; more than 25 µM with PC-3 prostate; more than 25 µM in the experiment on SF-268 CNS. Besides, the GI50 in the experiment on SF-295 CNS is more than 25 µM; in the experiment on SF-539 CNS, more than 20 µM; in the experiment with SK-MEL-2 melanoma, more than 18.5 µM; in the experiment with SK-MEL-5 melanoma it was more than 11.9 µM. The TGI in the experiment on ACHN renal, in the experiment on HOP-62 NSCLC, in the experiment on MALME-3M melanoma, with MCF7 breast, in the experiment on PC-3 prostate and in the experiment on SF-268 CNS was more than 25 µM throughout. The TGI in the experiment with SF-295 CNS, with SF-539 CNS, with SK-MEL-2 melanoma and in the experiment with SK-MEL-5 melanoma was more than 25 µM in each case.
On to `CCCNCc1cc(C)cc2c1nc(N1CCNCC1)n2Cc1cc(C)c(F)c(C)c1`, for which the GI50 in the experiment with ACHN renal is 4.37 µM; in the experiment on HOP-62 NSCLC it was 17 µM; in the experiment on MALME-3M melanoma, 1.86 µM; in the experiment on MCF7 breast, 2.25 µM; in the experiment with PC-3 prostate, 2.49 µM; with SF-268 CNS, 5.11 µM. Moreover, the GI50 is 1.79 µM in the experiment with SF-295 CNS, 1.79 µM in the experiment on SF-539 CNS, 14.1 µM in the experiment on SK-MEL-2 melanoma and 1.75 µM with SK-MEL-5 melanoma. The TGI worked out at 15.5 µM in the experiment on ACHN renal; 32.2 µM with HOP-62 NSCLC; 3.53 µM in the experiment on MALME-3M melanoma; 6.05 µM in the experiment with MCF7 breast; 7.66 µM in the experiment on PC-3 prostate; 19.7 µM in the experiment on SF-268 CNS. Moreover, the TGI with SF-295 CNS was 3.57 µM; with SF-539 CNS it was 3.59 µM; in the experiment with SK-MEL-2 melanoma, 28.1 µM; in the experiment with SK-MEL-5 melanoma, 3.21 µM.
